Where “and” joins values, the source holds several entries; their conditions need not be identical. Identical values can stand only once. Entries after “also recorded” stand apart in the source; their conditions may differ.
Key:
[1] = system: P. aeruginosa (PiuA); details: cited from earlier work
[2] = target: T1, HasAp (Pseudomonas aeruginosa, UniProt G3XD33); experiment: Binding affinity to HasAp by fluorescence quenching; details: for Kd: read-out: KD (nM), binding affinities of ligands to HasAp, fluorescence quenching, 1 μM apo-HasAp, 20 mM sodium phosphate pH 7.4, 25° C.; for binding to HasAp weaker than heme: relative to heme
T1 sequence (G3XD33 entry or part of it): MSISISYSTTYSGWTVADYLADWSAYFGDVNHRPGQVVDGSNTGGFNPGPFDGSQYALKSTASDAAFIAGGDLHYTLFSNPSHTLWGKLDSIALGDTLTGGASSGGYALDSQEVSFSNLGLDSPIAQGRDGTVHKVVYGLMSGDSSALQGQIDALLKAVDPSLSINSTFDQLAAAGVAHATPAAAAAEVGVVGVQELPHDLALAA
Protocol: Binding Affinity Determination by Fluorescence Quenching. Binding affinities were determined on an ISS K2 multifrequency fluorometer in L-format using 1 cm quartz cuvettes. To a 1 μM solution of apo-HasAp in 20 mM sodium phosphate buffer (pH 7.4, 25° C.) was titrated ligand of interest. Emission spectra were recorded (300-500 nm) following excitation at 295 nm. The decrease in maximum emission was plotted against the ligand concentration (accounting for dilution) and fit to one-site binding using GraphPad Prism 8.
Determine binding affinities (KD) by FQ. KD values of all synthesized compounds are calculated by FQ using previously described methods. Binding affinities are determined in a final volume of 200 μL in black flat-bottom 96-well plates using microplate reader. HasAp concentration is kept at 1.0 μM in Tris-HCl buffer (20 mM, pH 8.0). Inhibitors solvated in DMSO are added across a concentration range of 0.01 to 100 μM. The HasAp excitation (295 nm) emission spectrum is recorded from 300-500 nm. The KD values are calculated from plots of total binding vs. ligand concentration, where total binding corresponds to the fraction of binding sites represented by the decrease in fluorescence at the maximum emission (332 nm). All experiments are performed in triplicate.

[3] = system: Has signaling cascade (hasR promoter); experiment: hasR-lacZ β-galactosidase transcriptional reporter assay; type: cell-based, Pseudomonas aeruginosa; details: for transcriptional activation of the hasR promoter (Has signaling): 1 μM pre-formed HasAp complex, relative to heme (holo-HasAp)
Protocol: Transcriptional Reporter Assay. The chromosomal fusions of the PhasR-lacZ and promoterless lacZ gene were previously constructed and used to report on transcriptional activation of the Has signaling cascade. For all β-gal assays, strains were grown overnight in 50 mL LB broth with shaking at 37° C. Cells were harvested by centrifugation and resuspended in M9 media. Strains were then inoculated at A600=0.05 in triplicate in 25 mL of M9 minimal medium and cultured for 3 h to deplete bacterial iron stores. Growth cultures were then supplemented with 1 μM of either holo-HasAp, GaPPIX-HasAp, FeSal-HasAp or GaSal-HasAp. Aliquots (1 mL) at 0 (just prior to supplementation), 2 and 5 h post supplementation were harvested and assayed for […] activity as described previously.
Testing new GaSal analogs (KD<1 μM) for inhibition of heme sensing by transcriptional reporter assays. Transcriptional reporter assays to determine inhibition of the dependent CSS cascade are performed. It was previously shown that GaSal-HasAp inhibits transcriptional activation of the has operon (FIG. 10B). Furthermore, as the deletion of hasR attenuates virulence, inhibition of the signaling pathway combined with decreased heme uptake is a viable therapeutic strategy. PAO1 hasR-lacZ cultures are grown under iron limiting conditions in defined media (M9 or SSM) pelleted and washed to remove exogenous HasAp. Cells are resuspended to a final OD600 of 0.05 and supplemented with 1.0 μM HasAp reconstituted with heme or selected GaSal derivatives. Samples are removed at various times (0.5-5 h) and assayed for β-Gal activity and corrected for differences in OD600. Competition assays are also performed in the presence of varying heme and salophen concentrations.

[4] = system: P. aeruginosa PAO1 and mutants; experiment: Growth curves / antibacterial activity in M9 minimal medium; type: cell-based, Pseudomonas aeruginosa; details: M9 minimal media, 96-well plate
Protocol: Growth Curves. P. aeruginosa strains were grown overnight in 50 mL LB Broth with shaking at 37° C. Cells were harvested by centrifugation and resuspended in M9 minimal medium. Strains were then inoculated at A600=0.05 in 10 mL M9 minimal medium and grown for 3 h to deplete bacterial iron stores. Cultures were then plated in 96-well plates (Costar clear, flat-bottom with lid, Corning Inc) at A600≈0.05 to a final volume of 200 μL in M9 medium. Supplements (2 μL) were added as 100× stock solutions. Growth curves were recorded at 600 nm with a Biotek Synergy™ HT plate reader over 16 h of growth with shaking at 37° C. To account for background absorbance, blank wells were prepared with the same supplements but only M9 medium without culture. The blank wells were subtracted from the average of three growth wells per condition.

[5] = target: T1, HasAp; experiment: Circular dichroism thermal denaturation of HasAp; details: circular dichroism at 222 nm, 10 μM HasAp
Protocol: Circular Dichroism. Circular dichroism experiments were performed on a Jasco J-810 spectropolarimeter using 1 mm quartz cuvettes. All samples were recorded with 10 μM HasAp in 10 mM potassium phosphate (pH 7.4) at 25° C. from 190 to 260 nm at a scan rate of 50 nm/min, with each spectrum representing 5 accumulations. Data were acquired at […] resolution and 10 nm bandwidth. The mean residue ellipticity (degrees cm^2 dmol^−1) was calculated using CDPRO software as recommended by Jasco. Thermal denaturation studies were performed over a temperature range of 20-90° C. at 222 nm. Melting temperatures were determined by fitting denaturation data to a Boltzmann-Sigmoidal distribution in GraphPad Prism 8.

[6] = target: T1, HasAp; experiment: Saturation transfer difference NMR in PAO1 ΔhasAp supernatant; type: binding; details: GaSal 1 mM, HasAp 10 μM, PAO1 ΔhasAp supernatant
Protocol: (§1) Saturation Transfer Difference NMR. PAO1 ΔhasAp was cultured overnight from a single colony in LB Broth. The cells were harvested by centrifugation and resuspended in M9 Minimal Media. 10 mL of M9 were inoculated at A600˜0.05 and grown for 3 h. Cell-free supernatant was obtained by centrifugation and subsequent filter-sterilization by a […] syringe filter. Supernatant was then used as the solvent for subsequent STD experiments. Final sample volume contained 600 μL of supernatant with or without 10 μM HasAp (as a negative control) and 5% D2O for solvent locking.
(§2) The STD experiments were performed at 25° C. on an Agilent DD2 500 MHz spectrometer. The vendor supplied pulse sequences, dpfgse_satxfer.c was used, the on- and off-resonance fids are subtracted in-place through phase-cycling, to yield only the difference fid. Selective saturation was performed for 2.5 s and consisted of 50 ms Gaussian pulses separated by a 1-ms delay at a field strength of 50 Hz. […]
(§3) Determine the binding mode of GaSal and top derivatives by STD-, ^1H-^15N HSQC-NMR, and HDX-MS. […] Following incubation (4 h) 4,4-dimethyl-4-silapentane-1-sulfonic acid (DSS, 3 μL in D20) is added as internal standard and spectra recorded as reported. […] Combined chemical shift differences between the apo and each of the titration points are calculated using the following equation: […]

[7] = system: HasAp; experiment: as above; type: binding, Pseudomonas aeruginosa; details: 1H NMR, 24 hr
Protocol: as §1, §2, §3

Structure (SMILES)	Kd [2]	binding to HasAp weaker than heme [2]	transcriptional activation of the hasR promoter (Has signaling) [3]	melting temperature of HasAp [5]	other results
CC(C)(O/N=C(\C(=O)N[C@@H]1C(=O)N2C(C(=O)[O-])=C(C[N+]3(CCNC(=O)c4ccc(O)c(O)c4Cl)CCCC3)CS[C@H]12)c1csc(N)n1)C(=O)O [Cefiderocol]	–	–	–	–	resistance rates ([1]; at 10×MIC): < 7×10^−9; increase in MIC ([1]; mutations with a deficiency in PiuA): ~20 fold
Oc1ccccc1C=Nc1ccccc1N=Cc1ccccc1O.[Fe+3] [FeSal, FeSal Chloride]	1100 nM and 1050 nM	~3 fold	inhibited the holo-HasAp activation of the cell surface signaling cascade; also recorded: inhibition of transcriptional activation relative to heme or GaPPIX; also recorded: decreased transcriptional activation relative to heme	–	–
C=CC1=C(C)c2cc3[nH]c(cc4nc(cc5[nH]c(cc1n2)c(C)c5CCC(=O)O)C(CCC(=O)O)=C4C)c(C)c3C=C.[Ga+3] [GaPPIX, Gallium protoporphyrin IX]	280 ± 30 nM	–	no inhibition of transcriptional activation relative to heme; also recorded: increased (2 h) or similar transcriptional activation to heme	–	growth of P. aeruginosa PAO1 [4]: inhibits growth
Oc1ccccc1C=Nc1ccccc1N=Cc1ccccc1O.[Ga+3] [GaSal, GaSalophen Nitrate]	1110 ± 220 nM	~3 fold	inhibited the holo-HasAp activation of the cell surface signaling cascade; also recorded: inhibition of transcriptional activation relative to heme or GaPPIX; also recorded: decreased transcriptional activation relative to heme	65 °C	β-galactosidase production ([3]; at 5 hours): increased β-galactosidase when compared to FeSal; STD NMR saturation transfer from HasAp [6]: saturation transfer among all protons of GaSal; stability in PAO1 ΔhasAp supernatant [7]: still intact after 24 hr
C=CC1=C(C)c2cc3[nH]c(cc4nc(cc5[nH]c(cc1n2)c(C)c5CCC(=O)O)C(CCC(=O)O)=C4C)c(C)c3C=C.[Fe+3] [Heme]	350 ± 50 nM	–	–	> 90 °C	–

— patent publication US20230227476A1, “GALLIUM-SALOPHEN ANTIMICROBIAL COMPOUNDS AND METHODS OF USE THEREOF” (priority 2020, published 2023)
